The values below come from US11020395B2, “Cycloalkyl substituted triazole compounds as agonists of the APJ receptor” (AMGEN INC., priority 2016, dated 2021).

Sequence of human APJ receptor (P35414 whole entry): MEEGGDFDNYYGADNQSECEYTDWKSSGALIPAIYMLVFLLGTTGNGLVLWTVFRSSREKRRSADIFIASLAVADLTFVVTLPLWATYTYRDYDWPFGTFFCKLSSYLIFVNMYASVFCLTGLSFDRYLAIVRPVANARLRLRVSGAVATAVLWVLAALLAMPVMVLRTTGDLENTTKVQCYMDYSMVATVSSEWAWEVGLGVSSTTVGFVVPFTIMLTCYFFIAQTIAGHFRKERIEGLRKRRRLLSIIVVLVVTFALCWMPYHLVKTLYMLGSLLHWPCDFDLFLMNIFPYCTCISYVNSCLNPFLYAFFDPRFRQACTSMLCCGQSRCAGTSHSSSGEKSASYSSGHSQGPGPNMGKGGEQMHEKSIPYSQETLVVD

The experiment addresses human APJ receptor (Homo sapiens (Human), UniProt P35414). In words: [35S]GTPγS binding assay on membranes from CHO cells stably expressing human APJ receptor. The class given is biochemical. To be noted: [35S]GTPγS SPA, read-out: Activity hAPJ SPA EC50 IP. An outline of the steps: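 Membranes from CHO cells stably expressing FLAG-tagged human APJ were incubated with [35S]GTPγS in buffer with optimized GDP, MgCl2 and NaCl, 90 min at RT. EC50 values derived by non-linear regression, averaged over several independent experiments.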
A general note: GTPγS is a poorly hydrolysed GTP analogue; its binding reports G protein activation.
As usually defined, the EC50 is the concentration needed to bring the measured effect to its halfway point. As to `COc1cccc(OC)c1-n1c(NS(=O)(=O)[C@@H](C)[C@H](OC)c2ncc(Cl)cn2)nnc1C1CCC1C#N` (single isomer, unassigned) [Example 169.0, (1R,2S)-1-(5-chloropyrimidin-2-yl)-N-(5-((1R,2S)-2-cyanocyclobutyl)-4-(2,6-dimethoxyphenyl)-4H-1,2,4-triazol-3-yl)-1-methoxypropane-2-sulfonamide or (1R,2S)-1-(5-chloropyrimidin-2-yl)-N-(5-((1S,2R)-2-cyanocyclobutyl)-4-(2,6-dimethoxyphenyl)-4H-1,2,4-triazol-3-yl)-1-methoxypropane-2-sulfonamide], the EC50 stood at 21 nM.

`COc1cccc(OC)c1-n1c(NS(=O)(=O)[C@@H](C)[C@H](OC)c2ncc(Cl)cn2)nnc1C1CCC1C#N` (single isomer, unassigned) [Example 170.0, (1R,2S)-1-(5-chloropyrimidin-2-yl)-N-(5-((1R,2R)-2-cyanocyclobutyl)-4-(2,6-dimethoxyphenyl)-4H-1,2,4-triazol-3-yl)-1-methoxypropane-2-sulfonamide or (1R,2S)-1-(5-chloropyrimidin-2-yl)-N-(5-((1R,2R)-2-cyanocyclobutyl)-4-(2,6-dimethoxyphenyl)-4H-1,2,4-triazol-3-yl)-1-methoxypropane-2-sulfonamide]: the EC50 worked out at 18 nM.

For the compound `COc1ncnc(OC)c1-n1c(NS(=O)(=O)[C@@H](C)[C@H](OC)c2ncc(Cl)cn2)nnc1[C@H]1CC[C@@H](C(F)(F)F)CC1` (single isomer, unassigned) [Example 172.0, (1R,2S)-1-(5-chloropyrimidin-2-yl)-N-(4-(4,6-dimethoxypyrimidin-5-yl)-5-((1s,4R)-4-(trifluoromethyl)cyclohexyl)-4H-1,2,4-triazol-3-yl)-1-methoxypropane-2-sulfonamide or (1R,2S)-1-(5-chloropyrimidin-2-yl)-N-(4-(4,6-dimethoxypyrimidin-5-yl)-5-((1r,4S)-4-(trifluoromethyl)cyclohexyl)-4H-1,2,4-triazol-3-yl)-1-methoxypropane-2-sulfonamide], the EC50 amounted to 370 nM.

Regarding `COc1ncnc(OC)c1-n1c(NS(=O)(=O)[C@@H](C)[C@H](OC)c2ncc(Cl)cn2)nnc1[C@H]1CC[C@@H](C(F)(F)F)CC1` (single isomer, unassigned) [Example 173.0, (1R,2S)-1-(5-chloropyrimidin-2-yl)-N-(4-(4,6-dimethoxypyrimidin-5-yl)-5-((1s,4R)-4-(trifluoromethyl)cyclohexyl)-4H-1,2,4-triazol-3-yl)-1-methoxypropane-2-sulfonamide or (1R,2S)-1-(5-chloropyrimidin-2-yl)-N-(4-(4,6-dimethoxypyrimidin-5-yl)-5-((1r,4S)-4-(trifluoromethyl)cyclohexyl)-4H-1,2,4-triazol-3-yl)-1-methoxypropane-2-sulfonamide], the EC50 amounted to 13 nM.

With `COc1ncnc(OC)c1-n1c(NS(=O)(=O)[C@@H](C)[C@H](OC)c2ncc(Cl)cn2)nnc1[C@H]1CC[C@@H](OC)CC1` (single isomer, unassigned) [Example 174.0, (1R,2S)-1-(5-chloropyrimidin-2-yl)-N-(4-(4,6-dimethoxypyrimidin-5-yl)-5-((1s,4R)-4-methoxycyclohexyl)-4H-1,2,4-triazol-3-yl)-1-methoxypropane-2-sulfonamide or (1R,2S)-1-(5-chloropyrimidin-2-yl)-N-(4-(4,6-dimethoxypyrimidin-5-yl)-5-((1r,4S)-4-methoxycyclohexyl)-4H-1,2,4-triazol-3-yl)-1-methoxypropane-2-sulfonamide], the EC50 was 1200 nM.

On to `COc1ncnc(OC)c1-n1c(NS(=O)(=O)[C@@H](C)[C@H](OC)c2ncc(Cl)cn2)nnc1[C@H]1CC[C@@H](F)CC1` (single isomer, unassigned) [Example 175.0, (1R,2S)-1-(5-chloropyrimidin-2-yl)-N-(4-(4,6-dimethoxypyrimidin-5-yl)-5-((1s,4R)-4-fluorocyclohexyl)-4H-1,2,4-triazol-3-yl)-1-methoxypropane-2-sulfonamide or (1R,2S)-1-(5-chloropyrimidin-2-yl)-N-(4-(4,6-dimethoxypyrimidin-5-yl)-5-((1r,4S)-4-fluorocyclohexyl)-4H-1,2,4-triazol-3-yl)-1-methoxypropane-2-sulfonamide], for which the EC50 is 59 nM.

With `COc1ncnc(OC)c1-n1c(NS(=O)(=O)[C@@H](C)[C@H](OC)c2ncc(Cl)cn2)nnc1[C@H]1CC[C@@H](F)CC1` (single isomer, unassigned) [Example 176.0, (1R,2S)-1-(5-chloropyrimidin-2-yl)-N-(4-(4,6-dimethoxypyrimidin-5-yl)-5-((1s,4R)-4-fluorocyclohexyl)-4H-1,2,4-triazol-3-yl)-1-methoxypropane-2-sulfonamide or (1R,2S)-1-(5-chloropyrimidin-2-yl)-N-(4-(4,6-dimethoxypyrimidin-5-yl)-5-((1r,4S)-4-fluorocyclohexyl)-4H-1,2,4-triazol-3-yl)-1-methoxypropane-2-sulfonamide], the EC50 stood at 17 nM.

Consider `COc1ncnc(OC)c1-n1c(NS(=O)(=O)[C@@H](C)[C@H](OC)c2ncc(Cl)cn2)nnc1[C@H]1C[C@@H](C(F)(F)F)C1` (single isomer, unassigned) [Example 177.0, (1R,2S)-1-(5-chloropyrimidin-2-yl)-N-(4-(4,6-dimethoxypyrimidin-5-yl)-5-((1s,3R)-3-(trifluoromethyl)cyclobutyl)-4H-1,2,4-triazol-3-yl)-1-methoxypropane-2-sulfonamide or (1R,2S)-1-(5-chloropyrimidin-2-yl)-N-(4-(4,6-dimethoxypyrimidin-5-yl)-5-((1r,3S)-3-(trifluoromethyl)cyclobutyl)-4H-1,2,4-triazol-3-yl)-1-methoxypropane-2-sulfonamide], for which the EC50 amounted to 23 nM.

With `COc1ncnc(OC)c1-n1c(NS(=O)(=O)[C@@H](C)[C@H](OC)c2ncc(Cl)cn2)nnc1[C@H]1C[C@@H](C(F)(F)F)C1` (single isomer, unassigned) [Example 178.0, (1R,2S)-1-(5-chloropyrimidin-2-yl)-N-(4-(4,6-dimethoxypyrimidin-5-yl)-5-((1s,3R)-3-(trifluoromethyl)cyclobutyl)-4H-1,2,4-triazol-3-yl)-1-methoxypropane-2-sulfonamide or (1R,2S)-1-(5-chloropyrimidin-2-yl)-N-(4-(4,6-dimethoxypyrimidin-5-yl)-5-((1r,3S)-3-(trifluoromethyl)cyclobutyl)-4H-1,2,4-triazol-3-yl)-1-methoxypropane-2-sulfonamide], the EC50 came out at 6.5 nM.

In the case of `COc1ncnc(OC)c1-n1c(NS(=O)(=O)[C@@H](C)[C@H](OC)c2ncc(Cl)cn2)nnc1[C@@H]1CC[C@@H]1F` (single isomer, unassigned) [Example 179.0, (1R,2S)-1-(5-chloropyrimidin-2-yl)-N-(4-(4,6-dimethoxypyrimidin-5-yl)-5-((1S,2S)-2-fluorocyclobutyl)-4H-1,2,4-triazol-3-yl)-1-methoxypropane-2-sulfonamide or (1R,2S)-1-(5-chloropyrimidin-2-yl)-N-(4-(4,6-dimethoxypyrimidin-5-yl)-5-((1R,2R)-2-fluorocyclobutyl)-4H-1,2,4-triazol-3-yl)-1-methoxypropane-2-sulfonamide], the EC50 was 46 nM.

Regarding `COc1ncnc(OC)c1-n1c(NS(=O)(=O)[C@@H](C)[C@H](OC)c2ncc(Cl)cn2)nnc1[C@@H]1CC[C@@H]1F` (single isomer, unassigned) [Example 180.0, (1R,2S)-1-(5-chloropyrimidin-2-yl)-N-(4-(4,6-dimethoxypyrimidin-5-yl)-5-((1S,2S)-2-fluorocyclobutyl)-4H-1,2,4-triazol-3-yl)-1-methoxypropane-2-sulfonamide or (1R,2S)-1-(5-chloropyrimidin-2-yl)-N-(4-(4,6-dimethoxypyrimidin-5-yl)-5-((1R,2R)-2-fluorocyclobutyl)-4H-1,2,4-triazol-3-yl)-1-methoxypropane-2-sulfonamide], the EC50 is 24 nM.

Turning to `COc1ncnc(OC)c1-n1c(NS(=O)(=O)[C@@H](C)[C@H](OC)c2ncc(Cl)cn2)nnc1[C@H]1CC[C@@H]1F` (single isomer, unassigned) [Example 181.0, (1R,2S)-1-(5-chloropyrimidin-2-yl)-N-(4-(4,6-dimethoxypyrimidin-5-yl)-5-((1R,2S)-2-fluorocyclobutyl)-4H-1,2,4-triazol-3-yl)-1-methoxypropane-2-sulfonamide or (1R,2S)-1-(5-chloropyrimidin-2-yl)-N-(4-(4,6-dimethoxypyrimidin-5-yl)-5-((1S,2R)-2-fluorocyclobutyl)-4H-1,2,4-triazol-3-yl)-1-methoxypropane-2-sulfonamide], the EC50 came out at 32 nM.

Take `COc1ncnc(OC)c1-n1c(NS(=O)(=O)[C@@H](C)[C@H](OC)c2ncc(Cl)cn2)nnc1[C@H]1CC[C@@H]1F` (single isomer, unassigned) [Example 182.0, (1R,2S)-1-(5-chloropyrimidin-2-yl)-N-(4-(4,6-dimethoxypyrimidin-5-yl)-5-((1R,2S)-2-fluorocyclobutyl)-4H-1,2,4-triazol-3-yl)-1-methoxypropane-2-sulfonamide or (1R,2S)-1-(5-chloropyrimidin-2-yl)-N-(4-(4,6-dimethoxypyrimidin-5-yl)-5-((1S,2R)-2-fluorocyclobutyl)-4H-1,2,4-triazol-3-yl)-1-methoxypropane-2-sulfonamide]: the EC50 stood at 10 nM.

Regarding `COc1ncnc(OC)c1-n1c(NS(=O)(=O)[C@@H](C)[C@H](OC)c2ncc(Cl)cn2)nnc1[C@H]1CC[C@@H]1C` (single isomer, unassigned) [Example 187.0, (1R,2S)-1-(5-chloropyrimidin-2-yl)-N-(4-(4,6-dimethoxypyrimidin-5-yl)-5-((1S,2S)-2-methylcyclobutyl)-4H-1,2,4-triazol-3-yl)-1-methoxypropane-2-sulfonamide or (1R,2S)-1-(5-chloropyrimidin-2-yl)-N-(4-(4,6-dimethoxypyrimidin-5-yl)-5-((1R,2R)-2-methylcyclobutyl)-4H-1,2,4-triazol-3-yl)-1-methoxypropane-2-sulfonamide], the EC50 was 8.8 nM.
